One assay has as its target human FGFR-1 (Homo sapiens, UniProt P11362). Description: FGFR-1 high ATP kinase assay (TR-FRET). The assay is classed as biochemical. The note with it: 2 mM ATP; 15 min pre-incubation with enzyme; compounds of the invention.
The next assay addresses human FGFR-3 (Homo sapiens (Human), UniProt P22607). Description: FGFR-3 kinase assay (TR-FRET). In kind it is biochemical. The note with it: 10 μM ATP, 15 min pre-incubation with enzyme, compounds of the invention.
The target in a further assay is human mTOR (Homo sapiens (Human), UniProt P42345). Description: mTOR kinase assay (TR-FRET, for comparative purposes). The note with it: mean inhibition at 1 μM test compound; 40 μM ATP. In kind it is biochemical. A general note: In TR-FRET formats the signal depends on donor and acceptor labels being close together.
Chain of human mTOR (P42345 1360-2549): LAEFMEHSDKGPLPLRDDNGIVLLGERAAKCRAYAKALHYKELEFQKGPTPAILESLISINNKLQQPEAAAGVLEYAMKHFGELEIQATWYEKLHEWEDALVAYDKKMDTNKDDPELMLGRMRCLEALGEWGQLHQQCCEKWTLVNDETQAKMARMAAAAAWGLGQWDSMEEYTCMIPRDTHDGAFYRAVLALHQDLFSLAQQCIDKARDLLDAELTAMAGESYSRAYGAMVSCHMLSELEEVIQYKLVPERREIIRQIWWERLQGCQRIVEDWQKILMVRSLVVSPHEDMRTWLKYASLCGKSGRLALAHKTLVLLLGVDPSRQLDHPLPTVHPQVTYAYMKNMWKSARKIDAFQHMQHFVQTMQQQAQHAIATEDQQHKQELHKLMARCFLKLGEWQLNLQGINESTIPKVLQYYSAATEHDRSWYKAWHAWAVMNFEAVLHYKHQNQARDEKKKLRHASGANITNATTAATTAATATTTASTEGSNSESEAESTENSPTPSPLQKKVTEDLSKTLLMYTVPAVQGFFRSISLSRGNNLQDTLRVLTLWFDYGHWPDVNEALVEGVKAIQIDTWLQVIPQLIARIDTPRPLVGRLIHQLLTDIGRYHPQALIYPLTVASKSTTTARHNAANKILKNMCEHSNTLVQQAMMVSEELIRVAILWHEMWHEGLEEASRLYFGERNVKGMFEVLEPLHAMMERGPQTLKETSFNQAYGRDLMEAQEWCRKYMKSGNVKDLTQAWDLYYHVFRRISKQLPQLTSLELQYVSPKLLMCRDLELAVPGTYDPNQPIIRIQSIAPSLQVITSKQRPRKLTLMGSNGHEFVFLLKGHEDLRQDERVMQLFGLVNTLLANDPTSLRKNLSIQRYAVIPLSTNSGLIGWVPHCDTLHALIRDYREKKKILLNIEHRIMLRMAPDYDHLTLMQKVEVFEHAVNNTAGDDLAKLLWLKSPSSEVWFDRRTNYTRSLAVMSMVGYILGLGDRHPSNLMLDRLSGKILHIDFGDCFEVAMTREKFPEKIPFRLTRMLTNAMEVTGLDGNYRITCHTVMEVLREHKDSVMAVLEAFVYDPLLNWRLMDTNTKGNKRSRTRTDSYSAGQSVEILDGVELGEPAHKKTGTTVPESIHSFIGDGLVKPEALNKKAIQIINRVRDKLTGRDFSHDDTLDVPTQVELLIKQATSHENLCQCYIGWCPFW
For assay [1], the system named is Human umbilical vein endothelial cells (HUVEC). Description: Inhibition of growth factor-mediated cell proliferation (hFGF-2, HUVEC). The assay is classed as cell-based. The note with it: 72 h, read-out: hFGF-2 mediated HUVEC proliferation, IC50 [nM].

Structures are written as SMILES. Structures can show the parent of a compound that is named as a salt.

Chain of human FGFR-3 (P22607 397-806): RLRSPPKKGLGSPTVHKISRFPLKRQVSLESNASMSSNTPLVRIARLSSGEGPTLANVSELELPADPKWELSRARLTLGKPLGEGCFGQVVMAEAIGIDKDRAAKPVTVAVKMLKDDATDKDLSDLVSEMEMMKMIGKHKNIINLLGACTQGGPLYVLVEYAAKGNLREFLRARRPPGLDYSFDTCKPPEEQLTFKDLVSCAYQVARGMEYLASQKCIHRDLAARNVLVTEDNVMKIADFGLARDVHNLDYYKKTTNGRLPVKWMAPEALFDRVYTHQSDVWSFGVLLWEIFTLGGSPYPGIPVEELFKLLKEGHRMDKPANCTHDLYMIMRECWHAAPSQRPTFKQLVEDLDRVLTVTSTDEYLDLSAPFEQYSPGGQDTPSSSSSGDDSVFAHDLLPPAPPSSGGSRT
Chain of human FGFR-1 (P11362 22-822 limits assumed): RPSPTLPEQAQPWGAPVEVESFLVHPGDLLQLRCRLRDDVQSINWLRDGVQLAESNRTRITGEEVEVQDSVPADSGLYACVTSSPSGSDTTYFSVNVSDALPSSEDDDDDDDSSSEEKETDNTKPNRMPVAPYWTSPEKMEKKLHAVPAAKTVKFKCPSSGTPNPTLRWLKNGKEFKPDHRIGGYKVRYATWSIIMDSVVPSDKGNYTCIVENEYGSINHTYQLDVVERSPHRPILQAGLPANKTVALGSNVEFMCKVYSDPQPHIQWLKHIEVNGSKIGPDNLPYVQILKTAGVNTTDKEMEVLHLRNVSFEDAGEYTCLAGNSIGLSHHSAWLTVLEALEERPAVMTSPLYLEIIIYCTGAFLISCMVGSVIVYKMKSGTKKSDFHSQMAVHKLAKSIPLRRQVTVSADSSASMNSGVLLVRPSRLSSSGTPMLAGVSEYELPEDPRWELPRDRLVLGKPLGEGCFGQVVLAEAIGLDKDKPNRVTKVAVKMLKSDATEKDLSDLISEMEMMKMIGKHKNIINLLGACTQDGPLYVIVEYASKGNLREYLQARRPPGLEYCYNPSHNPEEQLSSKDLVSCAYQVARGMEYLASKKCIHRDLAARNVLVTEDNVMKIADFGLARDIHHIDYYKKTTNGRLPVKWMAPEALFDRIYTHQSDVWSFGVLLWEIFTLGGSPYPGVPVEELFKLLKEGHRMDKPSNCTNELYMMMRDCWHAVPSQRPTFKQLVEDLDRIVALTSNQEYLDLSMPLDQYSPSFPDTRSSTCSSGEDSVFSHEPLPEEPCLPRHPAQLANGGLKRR

Take `CCOCc1c(-c2cc3cc(C)cc(OC)c3s2)c2c(N)ncnn2c1C(=O)N1CCC(O)CC1` [Example 121]: the values for the IC50 at human FGFR-1 and on human FGFR-3 were 8.2 nM and 24.6 nM, respectively. Besides, at human mTOR, the “mTOR inhibition @ 1 μM” value was “no inhib. effect detect”.
Regarding `COCCOCc1c(-c2cc3cc(C)cc(OC)c3s2)c2c(N)ncnn2c1CN1CCNCC1` [Example 28, 6-[(2-Methoxyethoxy)methyl]-5-(7-methoxy-5-methyl-1-benzothiophen-2-yl)-7-(piperazin-1-ylmethyl)pyrrolo[2,1-f][1,2,4]triazin-4-amine formiate], the figures for the IC50 against human FGFR-1 and at human FGFR-3 were 2.1 nM and 9.7 nM, respectively. Besides, the “mTOR inhibition @ 1 μM” value on human mTOR was “no inhib. effect detect”.
Take `COc1cc(C)cc2cc(-c3c(CNC(C)=O)c(CN4CCNCC4)n4ncnc(N)c34)sc12` [Example 64, N-{[4-Amino-5-(7-methoxy-5-methyl-1-benzothiophen-2-yl)-7-(piperazin-1-ylmethyl)pyrrolo-[2,1-f][1,2,4]triazin-6-yl]methyl}acetamide dihydrochloride]: the IC50 in assay [1] was 4.5 nM.
Consider `COc1cc(C)cc2cc(-c3c(CN4CCC(O)C4)c(CN4CCNCC4)n4ncnc(N)c34)sc12` (racemic) [Example 42, rac-1-{[4-Amino-5-(7-methoxy-5-methyl-1-benzothiophen-2-yl)-7-(piperazin-1-ylmethyl)pyrrolo-[2,1-f][1,2,4]triazin-6-yl]methyl}pyrrolidin-3-ol trihydrochloride], for which, on human FGFR-3, the IC50 amounted to 18.4 nM. Besides, the “mTOR inhibition @ 1 μM” value at human mTOR was “no inhib. effect detect”.
Turning to `COCc1c(-c2cc3cc(C)cc(OC)c3s2)c2c(N)ncnn2c1CN1CCN(C(C)=O)CC1` [Example 16, 1-(4-{[4-Amino-6-(methoxymethyl)-5-(7-methoxy-5-methyl-1-benzothiophen-2-yl)pyrrolo[2,1-f]-[1,2,4]triazin-7-yl]methyl}piperazin-1-yl)ethanone dihydrochloride], the IC50 in assay [1] amounted to 117 nM.
Consider `CCOCc1c(-c2cc3cc(C)cc(OC)c3s2)c2c(N)ncnn2c1C(=O)N1CCS(=O)(=O)C1` [Example 119], for which the IC50 at human FGFR-1 came out at 9 nM; against human FGFR-3 it was 4.5 nM. Moreover, the “mTOR inhibition @ 1 μM” value on human mTOR is listed as “no inhib. effect detect”.
Turning to `CCNCc1c(-c2cc3cc(C)cc(OC)c3s2)c2c(N)ncnn2c1CN1CCNCC1` [Example 38, 6-[(Ethylamino)methyl]-5-(7-methoxy-5-methyl-1-benzothiophen-2-yl)-7-(piperazin-1-ylmethyl)pyrrolo[2,1-f][1,2,4]triazin-4-amine trihydrochloride], the IC50 in assay [1] was determined as 213 nM.
`COc1cc(C)cc2cc(-c3c(CNCC(=O)O)c(CN4CCNCC4)n4ncnc(N)c34)sc12` [Example 48, N-{[4-Amino-5-(7-methoxy-5-methyl-1-benzothiophen-2-yl)-7-(piperazin-1-ylmethyl)pyrrolo-[2,1-f][1,2,4]triazin-6-yl]methyl}glycine trihydrochloride]: the IC50 was 45.4 nM on human FGFR-3 and 360 nM in assay [1].
`CCOCc1c(-c2cc3cc(C)cc(OC)c3s2)c2c(N)ncnn2c1CNCC(N)=O` [Example 9, N^2-{[4-Amino-6-(ethoxymethyl)-5-(7-methoxy-5-methyl-1-benzothiophen-2-yl)pyrrolo[2,1-f]-[1,2,4]triazin-7-yl]methyl}glycinamide dihydrochloride]: on human mTOR, the “mTOR inhibition @ 1 μM” value is “no inhib. effect detect”.
With `COc1cc(C)cc2cc(-c3c(CN4CCC(O)CC4)c(CN4CCNCC4)n4ncnc(N)c34)sc12` [Example 41, 1-{[4-Amino-5-(7-methoxy-5-methyl-1-benzothiophen-2-yl)-7-(piperazin-1-ylmethyl)pyrrolo-[2,1-f][1,2,4]triazin-6-yl]methyl}piperidin-4-ol trihydrochloride], the figures for the IC50 against human FGFR-1 and against human FGFR-3 were 2.8 nM and 7.2 nM, respectively. At human mTOR, the “mTOR inhibition @ 1 μM” value is “no inhib. effect detect”.
With `CCOCc1c(-c2cc3cc(C)cc(OC)c3s2)c2c(N)ncnn2c1CN1CCN(C(C)=O)CC1` [Example 11, 1-(4-{[4-Amino-6-(ethoxymethyl)-5-(7-methoxy-5-methyl-1-benzothiophen-2-yl)pyrrolo[2,1-f]-[1,2,4]triazin-7-yl]methyl}piperazin-1-yl)ethanone dihydrochloride], the IC50 at human FGFR-3 (dihydrochloride) was found to be 13 nM; in assay [1], 150 nM.
Turning to `COc1cc(C)cc2cc(-c3c(CNC4CC4)c(CN4CCNCC4)n4ncnc(N)c34)sc12` [Example 46, 6-[(Cyclopropylamino)methyl]-5-(7-methoxy-5-methyl-1-benzothiophen-2-yl)-7-(piperazin-1-ylmethyl)pyrrolo[2,1-f][1,2,4]triazin-4-amine trihydrochloride], the IC50 in assay [1] stood at 84.5 nM.
With `CCOCc1c(-c2cc3cc(C)cc(OC)c3s2)c2c(N)ncnn2c1C(=O)N1CCNC(=O)C1` [Example 107, 4-{[4-Amino-6-(ethoxymethyl)-5-(7-methoxy-5-methyl-1-benzothiophen-2-yl)pyrrolo[2,1-f]-[1,2,4]triazin-7-yl]carbonyl}piperazin-2-one], the IC50 stood at 9.4 nM against human FGFR-1 and 17.4 nM against human FGFR-3. For the same compound, the “mTOR inhibition @ 1 μM” value at human mTOR is given as “no inhib. effect detect”.
For `COCc1c(-c2cc3cc(C)ccc3s2)c2c(N)ncnn2c1CN1CCNC(=O)C1` [Example 89, 4-{[4-Amino-6-(methoxymethyl)-5-(5-methyl-1-benzothiophen-2-yl)pyrrolo[2,1-f][1,2,4]triazin-7-yl]methyl}piperazin-2-one], the IC50 at human FGFR-1 was 82.9 nM. In addition, the “mTOR inhibition @ 1 μM” value on human mTOR is on record as “no inhib. effect detect”.
As to `COc1cc(C)cc2cc(-c3c(CO)c(C)n4ncnc(N)c34)sc12` [Example 75, [4-Amino-5-(7-methoxy-5-methyl-1-benzothiophen-2-yl)-7-methylpyrrolo[2,1-f][1,2,4]triazin-6-yl]methanol], the IC50 on human FGFR-1 was 4.1 nM; against human FGFR-3 it was 19.8 nM.
Compound `CCOCc1c(-c2cc3cc(C)cc(OC)c3s2)c2c(N)ncnn2c1CN1CCC(O)CC1` [Example 98] came in with an IC50 against human FGFR-1 of 17 nM. Besides, at human mTOR, the “mTOR inhibition @ 1 μM” value is recorded as “no inhib. effect detect”.
Take `CCOCc1c(-c2cc3cc(C)cc(OC)c3s2)c2c(N)ncnn2c1CN1CCNCC1` [Example 18, 6-(Ethoxymethyl)-5-(7-methoxy-5-methyl-1-benzothiophen-2-yl)-7-(piperazin-1-ylmethyl)pyrrolo-[2,1-f][1,2,4]triazin-4-amine]: at human mTOR, the “mTOR inhibition @ 1 μM” value was “no inhib. effect detect”.
For the compound `COc1cc(C)cc2cc(-c3c(CN4CCNC(=O)C4)c(CN4CCN(C(C)=O)CC4)n4ncnc(N)c34)sc12` [Example 59, 4-({7-[(4-Acetylpiperazin-1-yl)methyl]-4-amino-5-(7-methoxy-5-methyl-1-benzothiophen-2-yl)pyrrolo[2,1-f][1,2,4]triazin-6-yl}methyl)piperazin-2-one], the results for the IC50 on human FGFR-1 and against human FGFR-3 were 3.8 nM and 6.8 nM, respectively.
`COCc1c(-c2cc3cc(C)cc(OC)c3s2)c2c(N)ncnn2c1CN1CC[C@](C)(N)C1` [Example 14, 7-{[(3S)-3-Amino-3-methylpyrrolidin-1-yl]methyl}-6-(methoxymethyl)-5-(7-methoxy-5-methyl-1-benzothiophen-2-yl)pyrrolo[2,1-f][1,2,4]triazin-4-amine trihydrochloride]: the IC50 against human FGFR-1 stood at 1.4 nM; in assay [1], 25 nM.
Regarding `COc1cc(C)cc2cc(-c3c(CN4CCCC4)c(CN4CCNCC4)n4ncnc(N)c34)sc12` [Example 45, 5-(7-Methoxy-5-methyl-1-benzothiophen-2-yl)-7-(piperazin-1-ylmethyl)-6-(pyrrolidin-1-ylmethyl)pyrrolo[2,1-f][1,2,4]triazin-4-amine trihydrochloride], the IC50 in assay [1] was determined as 171 nM.
Same read-out and setting: to `COc1cc(C)cc2cc(-c3c(CNCCO)c(CN4CCNCC4)n4ncnc(N)c34)sc12` [Example 39, 2-({[4-Amino-5-(7-methoxy-5-methyl-1-benzothiophen-2-yl)-7-(piperazin-1-ylmethyl)pyrrolo-[2,1-f][1,2,4]triazin-6-yl]methyl}amino)ethanol trihydrochloride] belongs 365 nM.
On to `COc1cc(C)cc2cc(-c3c(CN[C@@H]4CCNC4=O)c(CN4CCN(C(C)=O)CC4)n4ncnc(N)c34)sc12` [Example 56, (3R)-3-[({7-[(4-Acetylpiperazin-1-yl)methyl]-4-amino-5-(7-methoxy-5-methyl-1-benzothiophen-2-yl)pyrrolo[2,1-f][1,2,4]triazin-6-yl}methyl)amino]pyrrolidin-2-one], for which the IC50 was determined as 2.4 nM against human FGFR-1 and 2 nM at human FGFR-3.
On the same counts, the results for `COc1cc(C)cc2cc(-c3c(CO)c(Cl)n4ncnc(N)c34)sc12` [Example 79, [4-Amino-7-chloro-5-(7-methoxy-5-methyl-1-benzothiophen-2-yl)pyrrolo[2,1-f][1,2,4]triazin-6-yl]methanol] are 12.6 nM and 17.9 nM.

The values are drawn from US9206184B2, “Disubstituted benzothienyl-pyrrolotriazines and uses thereof” (BAYER INTELLECTUAL PROPERTY GmbH, priority 2011, dated 2015).
